Data reported in patent publication US8552199B2, “Substituted indanes, method for the production thereof, and use thereof as drugs” (Sanofi, priority 2009, dated 2013).

molecular target: human MCH receptor (Homo sapiens (Human), UniProt Q99705); test: calcium mobilization assay (FLIPR); functional IC50 values of MCH1R antagonists; assay type: cell-based; settings: recombinant HEK293 cell line expressing the human MCH receptor, cellular calcium flux after addition of agonist (MCH)
From the text: Influence on the MCH Receptor in vitro; Determination of Functional IC50 Values of MCH1R Antagonists
Cloning of the cDNA for the human MCH receptor, preparation of a recombinant HEK293 cell line which expresses the human MCH receptor, and functional measurements with the recombinant cell line took place in analogy to the description by Audinot et al. (J. Biol. Chem. 2001, 276, 13554-13562). A difference from the reference was, however, the use of the plasmid pEAK8 from EDGE Biosystems (USA) for the construction of the expression vector. The host used for the transfection was a transformed HEK cell line named “PEAK Stable Cells” (likewise from EDGE Biosystems). Functional measurements of the cellular calcium flux after addition of agonist (MCH) in the presence of ligand of the invention took place with the aid of the FLIPR apparatus from Molecular Devices (USA), using protocols of the apparatus manufacturer. The compounds of the invention show a significant inhibition (>30%) of the signal induced by the agonist at a concentration of 100 μM, preferably at 10 μM, particularly preferably at 1 μM, very particularly preferably at 100 nM and very very particularly preferably at 10 nM.

human MCH receptor, sequence (Q99705 whole entry): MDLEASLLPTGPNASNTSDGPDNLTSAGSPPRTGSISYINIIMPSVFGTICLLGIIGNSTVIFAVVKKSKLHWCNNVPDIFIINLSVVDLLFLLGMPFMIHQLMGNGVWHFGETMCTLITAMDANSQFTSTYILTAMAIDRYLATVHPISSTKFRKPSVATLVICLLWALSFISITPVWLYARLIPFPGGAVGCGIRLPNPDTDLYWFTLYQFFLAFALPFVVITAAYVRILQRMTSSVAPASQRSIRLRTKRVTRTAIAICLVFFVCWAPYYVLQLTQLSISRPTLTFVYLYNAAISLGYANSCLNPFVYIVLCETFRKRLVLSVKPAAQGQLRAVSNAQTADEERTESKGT

`CN(C(=O)c1ccc(OC[C@@H]2CCCO2)cc1)[C@@H]1Cc2ccc(CNCC(C)(C)C)cc2C1` [Example 1-46] was tested. Which IC50 did it give?
The IC50 was 0.144 µM.

How did the IC50 turn out when `CN(C(=O)c1ccc(OCC2CC2)cc1)[C@@H]1Cc2ccc(CNCC(C)(C)C)cc2C1` [Example 1-23] was run?
Its IC50 is 0.144 µM.

For `CN(C(=O)c1ccc(OCC2CC2)cc1)[C@@H]1Cc2ccc(CNCC3CCOCC3)cc2C1` [Example 1-15], which IC50 is on record?
Its IC50 is 0.123 µM.

How did the IC50 turn out when `O=C(N[C@@H]1Cc2ccc(CN3CCCCCC3)cc2C1)c1ccc(OC[C@@H]2CCCO2)cn1` [Example 1-50] was run?
The IC50 was 0.766 µM.

How did the IC50 turn out when `CCN(C)Cc1ccc2c(c1)C[C@H](N(C)C(=O)c1ccc(OCC3CC3)cc1)C2` [Example 1-32] was run?
The IC50 was 0.147 µM.

With `O=C(N[C@@H]1Cc2ccc(CNCCC3CC3)cc2C1)c1ccc(OCC2CC2)cn1` [Example 1-55] as the molecule, how does the IC50 read?
Its IC50 is 0.848 µM.

For `CN(C(=O)c1ccc(OCC2CC2)cc1)[C@@H]1Cc2ccc(CN3CCCCCC3)cc2C1` [Example 1-09], which IC50 is on record?
The IC50 was 0.139 µM.

With `CCCCOc1ccc(C(=O)N(C)[C@@H]2Cc3ccc([C@H]4CCCN4)cc3C2)cc1` [Example 2, 4-Butoxy-N-methyl-N-((R)-(R)-5-pyrrolidin-2-ylindan-2-yl)benzamide] as the molecule, how does the IC50 read?
Its IC50 is 0.255 µM.

Which IC50 does the source give for `CCCCOc1ccc(C(=O)N(C)[C@@H]2Cc3ccc(CNC[C@@H]4CCCO4)cc3C2)nc1` [Example 1-66] here?
The IC50 was 0.194 µM.

How did the IC50 turn out when `CN(C(=O)c1ccc(OC[C@@H]2CCCO2)cc1)[C@@H]1Cc2ccc(CN3CC4CCC3CC4)cc2C1` [Example 1-47] was run?
Its IC50 is 0.229 µM.

How did the IC50 turn out when `CC1(C)CCN(Cc2ccc3c(c2)C[C@H](NC(=O)c2ccc(OC[C@@H]4CCCO4)cc2)C3)CC1` [Example 1-40] was run?
Its IC50 is 0.208 µM.

With `CC1(CNCc2ccc3c(c2)C[C@H](NC(=O)c2ccc(OCC4CC4)cn2)C3)CC1` [Example 1-58] as the molecule, how does the IC50 read?
Its IC50 is 1.04 µM.

`COCCCNCc1ccc2c(c1)C[C@H](N(C)C(=O)c1ccc(OCC3CC3)cc1)C2` [Example 1-27] was tested. Which IC50 did it give?
The IC50 was 0.117 µM.

For `CC[C@H](C)NCc1ccc2c(c1)C[C@H](N(C)C(=O)c1ccc(OCC3CC3)cc1)C2` [Example 1-36], which IC50 is on record?
Its IC50 is 0.198 µM.

`CCCCOc1ccc(C(=O)N(C)[C@@H]2Cc3ccc(CN4C[C@@H]5CC[C@H]4C5)cc3C2)nc1` [Example 1-62] was tested. Which IC50 did it give?
The IC50 was 0.173 µM.

Which IC50 does the source give for `O=C1c2ccc(OC[C@@H]3CCCO3)cc2CCN1[C@@H]1Cc2ccc(CNC3CCCCC3)cc2C1` [Example 1-90] here?
Its IC50 is 0.777 µM.

With `CC(C)(C)CNCc1ccc2c(c1)C[C@H](NC(=O)c1ccc(OC[C@@H]3CCCO3)cc1)C2` [Example 1-42] as the molecule, how does the IC50 read?
Its IC50 is 0.222 µM.

How did the IC50 turn out when `CN(C(=O)c1ccc(OCC2CC2)cc1)[C@@H]1Cc2ccc(CN3CC[C@H](O)C3)cc2C1` [Example 1-38] was run?
The IC50 was 0.115 µM.

`CN1CCCC1c1ccc2c(c1)C[C@H](N(C)C(=O)c1ccc(OCC3CC3)cn1)C2` (stereo partly drawn) [Example 3-1, N-Methyl-N-[(R)-5-(1-methylpyrrolidin-2-yl)indan-2-yl]-5-cyclopropylmethoxypyridine-2-carboxamide] was tested. Which IC50 did it give?
Its IC50 is 1.14 µM.

Which IC50 does the source give for `CN(C(=O)c1ccc(OCC2CC2)cc1)[C@@H]1Cc2ccc(CN3CCC(C(C)(C)O)CC3)cc2C1` [Example 1-05] here?
The IC50 was 0.294 µM.

How did the IC50 turn out when `CN(C(=O)c1ccc(OCC2CC2)cc1)[C@@H]1Cc2ccc(CNCC3(C)CC3)cc2C1` [Example 1-34] was run?
Its IC50 is 0.121 µM.

`CCCCOc1ccc(C(=O)N(C)[C@@H]2Cc3ccc(CNCC4(C)CCOCC4)cc3C2)nc1` [Example 1-72] was tested. Which IC50 did it give?
The IC50 was 0.147 µM.

Which IC50 does the source give for `CN(C(=O)c1ccc(OCC2CC2)cc1)[C@@H]1Cc2ccc(CN3CCC3)cc2C1` [Example 1-31] here?
The IC50 was 0.111 µM.

With `CN(C(=O)c1ccc(OCC2CC2)cn1)[C@@H]1Cc2ccc(CN3CCCCC3)cc2C1` [Example 1-81] as the molecule, how does the IC50 read?
The IC50 was 0.179 µM.
